Like-named read-outs stand apart in the source and are kept apart here.
Key:
Assay type in all cases: in vivo
[1] = system: Mythimna separata; assay: Insecticidal activity, spray on pre-infested radish plants: Mythimna separata; conditions: Mythimna separata, 144 h, read-out: fatality rate on Mythimna separata
Experimental: (§1) For determination of insecticidal activity, the test method was as follows: a test solution with a desired concentration was prepared by dissolving a test compound sample in a suitable solvent (the kind of solvent was such as acetone, methanol, DMSO, etc., and was selected according to its dissolving ability for the sample). The test cell was composed of a small open container with 12-15 day old radish plants inside. The plants were pre-infested by placing 30-40 pests located on one leaf cut from the cultivated plant on one leaf of the test plant (leaf cutting method). As the leaves dehydrated, the pests moved on the test plants. After the pre-infesting, the soil of the test cells was covered with a layer of sand.
(§2) The test method was as follows: the test was repeated for three times, and after spraying the formulated test compound, each test unit was allowed to dry for 1 hour, and then a black mesh cover was placed at the top. The test units were kept in a growth chamber at 25° C. and 70% relative humidity for 6 days. The mortality (fatality rate) of the insects was then visually assessed for each test unit, and the fatality rate was calculated as follows: […]

[2] = system: Chilo suppressalis; assay: Insecticidal activity, spray on pre-infested radish plants: Chilo suppressalis; conditions: Chilo suppressalis, 144 h, read-out: fatality rate on Chilo suppressalis
Experimental: as §1, §2

[3] = system: Spodoptera litura; assay: Insecticidal activity, spray on pre-infested radish plants: Spodoptera litura; conditions: 144 h, read-out: fatality rate on Spodoptera litura
Experimental: as §1, §2

[4] = system: Tetranychus cinnabarinus; assay: Acaricidal activity, slide immersion of female adult mites: Tetranychus cinnabarinus; conditions: read-out: fatality rate on Tetranychus cinnabarinus
Experimental: The test method was as follows: a test solution with a desired concentration was prepared by dissolving a test compound sample in a suitable solvent (the kind of solvent was such as acetone, methanol, DMSO, etc., and was selected according to its dissolving ability for the sample). A double-sided adhesive tape was cut into 2-3 cm long pieces, the pieces were attached to one end of a microscope slide, paper pieces on the adhesive tape were removed using tweezers, female adult mites which were consistent in size, bright in body color and lively in action were selected using a zero-size brush pen, the backs of the female adult mites were adhered to the double-sided adhesive tape (note: the adhesion should not cover mite feet, mite whiskers and mouthparts), with 4 rows of mites adhered to each piece and 10 heads of the mites adhered to each row.
One end of the glass slide with the mites was immersed into a drug liquid, with slightly shaking for 5 seconds, and then the slide was taken out. The excess drug liquid around the mite body and is surroundings is quickly sucked off using absorbent paper. The slide was placed in the biochemical incubator described above, and the results were checked by using binoculars after 24 hours. The mites were slightly touched by using a brush pen, the mites with immobility in feet were considered to be dead, and the fatality rate was calculated. The fatality rate was calculated as follows: […]

[5] = system: Cnaphalocrocis medinalis; assay: Insecticidal activity, spray on pre-infested radish plants: Cnaphalocrocis medinalis; conditions: 144 h, read-out: fatality rate on Cnaphalocrocis medinalis
Experimental: as §1, §2

[6] = system: Frankliniella occidentalis; assay: Insecticidal activity, spray on pre-infested radish plants: Frankliniella occidentalis; conditions: Frankliniella occidentalis, 144 h, read-out: fatality rate on Frankliniella occidentalis
Experimental: as §1
The test method was as follows: the test was repeated for three times, and after spraying the formulated test compound, each test unit was allowed to dry for 1 hour, and then a black mesh cover was placed at the top. The test units were kept in a growth chamber at 25° C. and 70% relative humidity for 6 days. The mortality (fatality rate) of the insects was then visually assessed for each test unit, and the fatality rate was calculated as follows:
[formula] (1) Test Results for the Control of Frankliniella occidentalis by Exemplary Example Compounds

[7] = system: Plutella xylostella; assay: Insecticidal activity, spray on pre-infested radish plants: Plutella xylostella; conditions: Plutella xylostella, 144 h, read-out: fatality rate on Plutella xylostella
Experimental: as §1, §2

[8] = system: Pieris rapae; assay: Insecticidal activity, spray on pre-infested radish plants: Pieris rapae; conditions: 144 h, read-out: fatality rate on Pieris rapae
Experimental: as §1, §2

[9] = dose 1 ppm, immersion 5 seconds, checked after 24 hours
[10] = dose 10 ppm, immersion 5 seconds, checked after 24 hours
[11] = dose 25 ppm, immersion 5 seconds, checked after 24 hours

Cc1cc(C2=NOC(c3cc(F)c(F)c(F)c3)(C(F)(F)F)C2)ccc1C(=O)NCc1ncc(Cl)cc1Cl (stereo not drawn) [Compound 12]
> 80%: pest or weed control at 0.1 ppm ([1]; dose 0.1 ppm, spray, 6 days) | pest or weed control at 1 ppm ([1]; dose 1 ppm, spray, 6 days) | pest or weed control at 10 ppm ([1]; dose 10 ppm, spray, 6 days) | pest or weed control at 0.1 ppm ([2]; dose 0.1 ppm, spray, 6 days) | pest or weed control at 1 ppm ([2]; dose 1 ppm, spray, 6 days) | pest or weed control at 10 ppm ([2]; dose 10 ppm, spray, 6 days) | pest or weed control at 0.1 ppm ([3]; dose 0.1 ppm, spray, 6 days) | pest or weed control at 1 ppm ([3]; dose 1 ppm, spray, 6 days) | pest or weed control at 10 ppm ([3]; dose 10 ppm, spray, 6 days) | pest or weed control at 1 ppm [4, 9] | pest or weed control at 10 ppm [4, 10] | pest or weed control at 25 ppm [4, 11] | pest or weed control at 0.1 ppm ([5]; dose 0.1 ppm, spray, 6 days) | pest or weed control at 1 ppm ([5]; dose 1 ppm, spray, 6 days) | pest or weed control at 10 ppm ([5]; dose 10 ppm, spray, 6 days) | pest or weed control at 1 ppm ([6]; dose 1 ppm, spray, 6 days) | pest or weed control at 10 ppm ([6]; dose 10 ppm, spray, 6 days) | pest or weed control at 25 ppm ([6]; dose 25 ppm, spray, 6 days) | pest or weed control at 0.1 ppm ([7]; dose 0.1 ppm, spray, 6 days) | pest or weed control at 1 ppm ([7]; dose 1 ppm, spray, 6 days) | pest or weed control at 10 ppm ([7]; dose 10 ppm, spray, 6 days) | pest or weed control at 0.1 ppm ([8]; dose 0.1 ppm, spray, 6 days) | pest or weed control at 1 ppm ([8]; dose 1 ppm, spray, 6 days) | pest or weed control at 10 ppm ([8]; dose 10 ppm, spray, 6 days)

Cc1cc(C2=NOC(c3cc(Cl)c(F)c(Cl)c3)(C(F)(F)F)C2)ccc1C(=O)NCc1ncccc1Cl (stereo not drawn) [Compound 13]
> 80%: pest or weed control at 0.1 ppm [1] | pest or weed control at 1 ppm [1] | pest or weed control at 10 ppm [1] | pest or weed control at 0.1 ppm [2] | pest or weed control at 1 ppm [2] | pest or weed control at 10 ppm [2] | pest or weed control at 0.1 ppm [3] | pest or weed control at 1 ppm [3] | pest or weed control at 10 ppm [3] | pest or weed control at 1 ppm ([4]; 24 h) | pest or weed control at 10 ppm ([4]; 24 h) | pest or weed control at 25 ppm ([4]; 24 h) | pest or weed control at 0.1 ppm [5] | pest or weed control at 1 ppm [5] | pest or weed control at 10 ppm [5] | pest or weed control at 1 ppm [6] | pest or weed control at 10 ppm [6] | pest or weed control at 25 ppm [6] | pest or weed control at 0.1 ppm [7] | pest or weed control at 1 ppm [7] | pest or weed control at 10 ppm [7] | pest or weed control at 0.1 ppm [8] | pest or weed control at 1 ppm [8] | pest or weed control at 10 ppm [8]

Cc1cc(C2=NOC(c3cc(F)c(F)c(F)c3)(C(F)(F)F)C2)ccc1C(=O)NCc1ncccc1Cl (stereo not drawn) [Compound 14]
> 80%: pest or weed control at 0.1 ppm ([1]; dose 0.1 ppm, spray, 6 days) | pest or weed control at 1 ppm ([1]; dose 1 ppm, spray, 6 days) | pest or weed control at 10 ppm ([1]; dose 10 ppm, spray, 6 days) | pest or weed control at 0.1 ppm ([2]; dose 0.1 ppm, spray, 6 days) | pest or weed control at 1 ppm ([2]; dose 1 ppm, spray, 6 days) | pest or weed control at 10 ppm ([2]; dose 10 ppm, spray, 6 days) | pest or weed control at 0.1 ppm ([3]; dose 0.1 ppm, spray, 6 days) | pest or weed control at 1 ppm ([3]; dose 1 ppm, spray, 6 days) | pest or weed control at 10 ppm ([3]; dose 10 ppm, spray, 6 days) | pest or weed control at 1 ppm [4, 9] | pest or weed control at 10 ppm [4, 10] | pest or weed control at 25 ppm [4, 11] | pest or weed control at 0.1 ppm ([5]; dose 0.1 ppm, spray, 6 days) | pest or weed control at 1 ppm ([5]; dose 1 ppm, spray, 6 days) | pest or weed control at 10 ppm ([5]; dose 10 ppm, spray, 6 days) | pest or weed control at 1 ppm ([6]; dose 1 ppm, spray, 6 days) | pest or weed control at 10 ppm ([6]; dose 10 ppm, spray, 6 days) | pest or weed control at 25 ppm ([6]; dose 25 ppm, spray, 6 days) | pest or weed control at 0.1 ppm ([7]; dose 0.1 ppm, spray, 6 days) | pest or weed control at 1 ppm ([7]; dose 1 ppm, spray, 6 days) | pest or weed control at 10 ppm ([7]; dose 10 ppm, spray, 6 days) | pest or weed control at 0.1 ppm ([8]; dose 0.1 ppm, spray, 6 days) | pest or weed control at 1 ppm ([8]; dose 1 ppm, spray, 6 days) | pest or weed control at 10 ppm ([8]; dose 10 ppm, spray, 6 days)

Source: patent US12564193B2, “Isoxazoline-substituted benzamide derivative, and preparation method therefor and use thereof” (SHANDONG UNITED PESTICIDE INDUSTRY CO., LTD., priority 2020, dated 2026)
